Where “and” joins values, the source holds several entries; their conditions need not be identical. Identical values can stand only once.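 Grown in 96-well plates, cells were treated for 48 hours with each compound at five concentrations. Insufficient inhibition: endpoint recorded as highest concentration tested. GI50: concentration for 50% inhibition of growth.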 Calls of active or inactive are those of the source. No stated cut-off is given here; in the data, active = GI50 up to about 1.1 µM and inactive = higher.
Columns and labels:
Experiment in all cases: NCI anticancer screen, dose series, 48 h
[1] = test system: SW-620
[2] = test system: U-251
[3] = test system: SNB-19
[4] = test system: TK-10
[5] = test system: NCI-H522
[6] = test system: SN12C
[7] = test system: BT-549
[8] = test system: MDA-MB-435
[9] = test system: PC-3
[10] = test system: LOX IMVI
[11] = test system: MOLT-4
[12] = test system: HOP-92
[13] = test system: SK-MEL-2
[14] = test system: NCI-H460
[15] = test system: HOP-62
[16] = test system: MDA-MB-231
[17] = test system: MCF7
[18] = test system: HCT-15
[19] = test system: SF-539

Structure (SMILES) | GI50 [1] | GI50 [2] | GI50 [3] | GI50 [4] | GI50 [5] | GI50 [6] | GI50 [7] | GI50 [8] | GI50 [9] | GI50 [10] | GI50 [11] | GI50 [12] | GI50 [13] | GI50 [14] | GI50 [15] | GI50 [16] | GI50 [17] | GI50 [18] | GI50 [19]
CC1(C)OC(=O)N(c2ccccc2)C12C=Cc1cccc([N+](=O)[O-])c1O2 (centres undefined) | > 100 µM (inactive) | 65.9 µM (inactive) | > 100 µM (inactive) | > 100 µM (inactive) | 36.5 µM (inactive) | > 100 µM (inactive) | > 100 µM (inactive) | 33 µM (inactive) | 31 µM (inactive) | 97.3 µM (inactive) | 15.1 µM (inactive) | > 100 µM (inactive) | > 100 µM (inactive) | > 100 µM (inactive) | > 100 µM (inactive) | > 100 µM (inactive) | 79.3 µM (inactive) | 90.2 µM | –
COc1ccc(C2OC(c3ccncc3)=NN2C)cc1F (centres undefined) | > 100 µM (inactive) | > 100 µM (inactive) | > 100 µM (inactive) | > 100 µM (inactive) | > 100 µM (inactive) | > 100 µM (inactive) | – | > 100 µM (inactive) | > 100 µM (inactive) | > 100 µM (inactive) | 41.9 µM (inactive) | > 100 µM (inactive) | > 100 µM (inactive) | > 100 µM (inactive) | > 100 µM (inactive) | > 100 µM (inactive) | > 100 µM (inactive) | > 100 µM | > 100 µM (inactive)
O=C1OC(c2ccccc2)=N/C1=C\c1cccc(F)c1 | > 100 µM (inactive) | 38.1 µM (inactive) | 55 µM (inactive) | > 100 µM (inactive) | 16 µM (inactive) | > 100 µM (inactive) | 32.4 µM (inactive) | 75 µM (inactive) | > 100 µM (inactive) | 22.2 µM (inactive) | 32.3 µM (inactive) | > 100 µM (inactive) | > 100 µM (inactive) | 60.5 µM (inactive) | 38.6 µM (inactive) | > 100 µM (inactive) | > 100 µM (inactive) | > 100 µM | –
CC(=O)c1sc2c(c1OC(=O)c1ccc(Cl)cc1)c(=O)n(-c1ccccc1)c(=S)n2-c1ccccc1 | 12.7 µM (inactive) | 2.82 µM (inactive) | 3.56 µM (inactive) | 22.4 µM (inactive) | 1.53 µM (inactive) | 2.06 µM (inactive) | – | 4.14 µM (inactive) | 3.56 µM (inactive) | 2.32 µM (inactive) | 1.56 µM (inactive) | 3.25 µM (inactive) | 1.27 µM (inactive) | 4.86 µM (inactive) | 3.85 µM (inactive) | 3.91 µM (inactive) | 23.2 µM (inactive) | 9.18 µM | 1.87 µM (inactive)
c1csc(-c2nccc3c2[nH]c2ccccc23)c1 | 21 µM (inactive) | 25.4 µM (inactive) | 27.7 µM (inactive) | 21.1 µM (inactive) | 15.8 µM (inactive) | 16.8 µM (inactive) | – | 18.3 µM (inactive) | 21.6 µM (inactive) | 20.5 µM (inactive) | 22.2 µM (inactive) | 22.3 µM (inactive) | 21.8 µM (inactive) | 23.9 µM (inactive) | 18.3 µM (inactive) | 20.6 µM (inactive) | 3.35 µM (inactive) | 20.4 µM | 16.4 µM (inactive)
Cn1c(=O)oc2cc(C(=O)CN3CCN(Cc4ccc5c(c4)OCO5)CC3)c(Cl)cc21 | – | > 100 µM (inactive) | > 100 µM (inactive) | – | – | > 100 µM (inactive) | – | – | > 100 µM (inactive) | 80.4 µM (inactive) | > 100 µM (inactive) | – | > 100 µM (inactive) | > 100 µM (inactive) | > 100 µM (inactive) | > 100 µM (inactive) | > 100 µM (inactive) | > 100 µM | > 100 µM (inactive)
CC(=O)Nc1c(Nc2ccccc2)[nH]c(C)nc1=S | > 100 µM (inactive) | – | > 100 µM (inactive) | > 100 µM (inactive) | > 100 µM (inactive) | > 100 µM (inactive) | – | – | – | > 100 µM (inactive) | > 100 µM (inactive) | > 100 µM (inactive) | > 100 µM (inactive) | > 100 µM (inactive) | > 100 µM (inactive) | – | – | > 100 µM | –
O=c1c2c3ccccc3[nH]c2c2cccc3c2n1CCC3 | 43.3 µM (inactive) | 36.1 µM (inactive) | > 100 µM (inactive) | 68.9 µM (inactive) | – | 53.1 µM (inactive) | 29.6 µM (inactive) | 54.6 µM (inactive) | 26.8 µM (inactive) | – | 25.5 µM (inactive) | 40.2 µM (inactive) | – | 34.8 µM (inactive) | 54.1 µM (inactive) | 28.3 µM (inactive) | 35.1 µM (inactive) | 32.4 µM | 40.1 µM (inactive)
CN(C)CCOC1(Cc2ccc(F)cc2)CCC(C(C)(C)C)CC1 (centres undefined) | 4.37 µM (inactive) and 7.36 µM (inactive) | 5.28 µM (inactive) and 6.25 µM (inactive) | 7.31 µM (inactive) and 11.9 µM (inactive) | 6.95 µM (inactive) and 12 µM (inactive) | 6.08 µM (inactive) and 10.7 µM (inactive) | 11.3 µM (inactive) and 12 µM (inactive) | – | 3.51 µM (inactive) and 4.54 µM (inactive) | 5.85 µM (inactive) and 5.07 µM (inactive) | 2.42 µM (inactive) and 3.2 µM (inactive) | 3.13 µM (inactive) and 2.61 µM (inactive) | 12.2 µM (inactive) | – | 3.27 µM (inactive) and 2.23 µM (inactive) | 7 µM (inactive) and 6.82 µM (inactive) | 9.62 µM (inactive) and 10.5 µM (inactive) | 6.04 µM (inactive) and 5.24 µM (inactive) | 8.13 µM and 6.81 µM | –
Cc1ccc(C2SCc3nc4ccccc4n32)cc1 (centres undefined) | 4.84 µM (inactive) | 5.87 µM (inactive) | 4.65 µM (inactive) | 3.54 µM (inactive) | 4.74 µM (inactive) | 3.01 µM (inactive) | – | 0.451 µM (active) | 1.88 µM (inactive) | 4.47 µM (inactive) | 2.96 µM (inactive) | 3.74 µM (inactive) | 1.1 µM (active) | 3.76 µM (inactive) | 3.44 µM (inactive) | 10.6 µM (inactive) | 4.68 µM (inactive) | 1.85 µM | 2.29 µM (inactive)
NC(=O)C1=C(c2ccccc2)c2ccccc2C1=O | 25.1 µM (inactive) | 18.3 µM (inactive) | 17.7 µM (inactive) | 18.1 µM (inactive) | 18.6 µM (inactive) | 18.5 µM (inactive) | 16.9 µM (inactive) | 26.1 µM (inactive) | 17.8 µM (inactive) | 7.98 µM (inactive) | 3.37 µM (inactive) | 17.7 µM (inactive) | 19.9 µM (inactive) | 15.9 µM (inactive) | 14.9 µM (inactive) | 17.8 µM (inactive) | 16.1 µM (inactive) | 12.3 µM | –
O=c1ccn([C@@H]2C[C@@H]2CO)c(=O)[nH]1 | > 100 µM (inactive) | > 100 µM (inactive) | > 100 µM (inactive) | > 100 µM (inactive) | > 100 µM (inactive) | > 100 µM (inactive) | > 100 µM (inactive) | > 100 µM (inactive) | > 100 µM (inactive) | > 100 µM (inactive) | – | > 100 µM (inactive) | > 100 µM (inactive) | > 100 µM (inactive) | > 100 µM (inactive) | – | > 100 µM (inactive) | > 100 µM | > 100 µM (inactive)
O=C1c2ccccc2-n2c1nc1ccc([N+](=O)[O-])cc1c2=O | 45.1 µM (inactive) | > 100 µM (inactive) | > 100 µM (inactive) | > 100 µM (inactive) | 82.6 µM (inactive) | 49.2 µM (inactive) | > 100 µM (inactive) | > 10 µM (inactive) | > 100 µM (inactive) | 22.5 µM (inactive) | 26.3 µM (inactive) | > 100 µM (inactive) | – | > 100 µM (inactive) | 30.6 µM (inactive) | 45.7 µM (inactive) | 11.7 µM (inactive) | 29.3 µM | > 100 µM (inactive)
CC1=NN(c2cccc(Cl)c2)C(=N/c2nc3ccccc3s2)/C1=C\C=C\c1ccccc1 | > 100 µM (inactive) | – | – | 34.9 µM (inactive) | 28.8 µM (inactive) | – | – | 33.8 µM (inactive) | – | 32.2 µM (inactive) | 0.369 µM (active) | – | – | 29.7 µM (inactive) | 30.8 µM (inactive) | – | 25.7 µM (inactive) | 32.2 µM | 43.8 µM (inactive)
CN(C)c1nc2n(CCO)ccnc-2c(=O)n1 | > 100 µM (inactive) | > 100 µM (inactive) | > 100 µM (inactive) | > 100 µM (inactive) | > 100 µM (inactive) | > 100 µM (inactive) | > 100 µM (inactive) | > 100 µM (inactive) | > 100 µM (inactive) | > 100 µM (inactive) | > 100 µM (inactive) | > 100 µM (inactive) | > 100 µM (inactive) | > 100 µM (inactive) | > 100 µM (inactive) | > 100 µM (inactive) | – | > 100 µM | > 100 µM (inactive)
N#CCC(=O)N/N=C\C(O)C(O)C(O)C(O)CO (centres undefined) | > 100 µM (inactive) | – | > 100 µM (inactive) | > 100 µM (inactive) | > 100 µM (inactive) | > 100 µM (inactive) | > 100 µM (inactive) | > 100 µM (inactive) | > 100 µM (inactive) | > 100 µM (inactive) | > 100 µM (inactive) | – | > 100 µM (inactive) | > 100 µM (inactive) | > 100 µM (inactive) | > 100 µM (inactive) | > 100 µM (inactive) | > 100 µM | > 100 µM (inactive)
COc1cccc(C2c3cc4c(cc3OC(N3CCCC3)C2c2ccccc2)OCO4)c1O (centres undefined) | 7.78 µM (inactive) | – | 5.57 µM (inactive) | 13.7 µM (inactive) | 12 µM (inactive) | 12.7 µM (inactive) | – | 6.59 µM (inactive) | 8.28 µM (inactive) | 12.4 µM (inactive) | 3.85 µM (inactive) | – | 12.1 µM (inactive) | 8.22 µM (inactive) | 21 µM (inactive) | – | 8.65 µM (inactive) | 6 µM | 6.78 µM (inactive)
